Source: paper PMC12064818, “A general assay platform to study protein pharmacology using ligand-dependent structural dynamics” (Nature Communications, 2025)
Like-named read-outs stand apart in the source and are kept apart here.

What was measured:
NLuc = target: T1, NLuc (Oplophorus gracilirostris, UniProt Q9GV45, A31E/A60N/A81I/F95D/I117V/K70R/L54V/L99Q/M102K/N193R/P142E/Q151K/Q38R/Q45L/V71I/Y165I); format: biochemical; conditions: - ATP
T1 construct: His tag (inferred from IMAC purification); made in house; host or cells: E. coli
T1 sequence (Q9GV45 other isoform, or with tags, fused parts or gaps with the stated changes): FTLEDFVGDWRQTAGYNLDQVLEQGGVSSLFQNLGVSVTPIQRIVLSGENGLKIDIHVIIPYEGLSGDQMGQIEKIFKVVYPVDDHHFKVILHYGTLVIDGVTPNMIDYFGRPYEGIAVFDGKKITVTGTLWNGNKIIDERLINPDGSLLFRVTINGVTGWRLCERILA
Method in brief: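 Test compounds added to 1 nM NLuc in PBS with 0.05% IGEPAL, ± ATP. Nano-Glo reagent added and incubated 10 min before luminescence read.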

P. pyralis FLuc = P. pyralis FLuc (Photinus pyralis, UniProt P08659); assay: FLuc enzymatic luminescence assay, P. pyralis FLuc; format: biochemical; conditions: FLuc enzymatic assay; for IC50: read-out: IC50 or SDR50 (mM) FLuc E
Sequence of P. pyralis FLuc (P08659 whole entry): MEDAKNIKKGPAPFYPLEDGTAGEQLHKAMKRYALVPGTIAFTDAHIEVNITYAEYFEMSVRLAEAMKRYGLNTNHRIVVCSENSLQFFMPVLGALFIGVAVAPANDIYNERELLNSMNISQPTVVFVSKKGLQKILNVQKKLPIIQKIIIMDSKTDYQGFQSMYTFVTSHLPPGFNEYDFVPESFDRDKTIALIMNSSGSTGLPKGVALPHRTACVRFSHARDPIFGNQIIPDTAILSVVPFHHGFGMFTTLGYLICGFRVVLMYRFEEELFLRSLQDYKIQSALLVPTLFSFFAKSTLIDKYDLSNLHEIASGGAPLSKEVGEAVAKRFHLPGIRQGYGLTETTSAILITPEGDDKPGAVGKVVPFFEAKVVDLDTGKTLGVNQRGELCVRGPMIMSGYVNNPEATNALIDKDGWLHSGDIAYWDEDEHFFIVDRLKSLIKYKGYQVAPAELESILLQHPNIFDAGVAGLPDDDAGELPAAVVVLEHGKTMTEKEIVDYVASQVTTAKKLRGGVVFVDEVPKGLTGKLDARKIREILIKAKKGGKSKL
Method in brief: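 Runs with and without 10 µM ATP: compounds were pre-incubated with FLuc (1–10 nM, PBS pH 7.4) at ambient temperature, light-protected, for 30–60 min. Luminescence was imaged 5 min after adding 10 µM D-luciferin (final). Inhibition was scaled between DMSO neutral and no-enzyme controls.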

[1] = target: FLuc-C-NLuc (firefly luciferase) (Photinus pyralis, UniProt P08659, form not given/L550V); assay: SDR assay, FLuc-C-NLuc; conditions: - ATP
Sequence of FLuc-C-NLuc (firefly luciferase) (P08659 2-550 L550V, form open): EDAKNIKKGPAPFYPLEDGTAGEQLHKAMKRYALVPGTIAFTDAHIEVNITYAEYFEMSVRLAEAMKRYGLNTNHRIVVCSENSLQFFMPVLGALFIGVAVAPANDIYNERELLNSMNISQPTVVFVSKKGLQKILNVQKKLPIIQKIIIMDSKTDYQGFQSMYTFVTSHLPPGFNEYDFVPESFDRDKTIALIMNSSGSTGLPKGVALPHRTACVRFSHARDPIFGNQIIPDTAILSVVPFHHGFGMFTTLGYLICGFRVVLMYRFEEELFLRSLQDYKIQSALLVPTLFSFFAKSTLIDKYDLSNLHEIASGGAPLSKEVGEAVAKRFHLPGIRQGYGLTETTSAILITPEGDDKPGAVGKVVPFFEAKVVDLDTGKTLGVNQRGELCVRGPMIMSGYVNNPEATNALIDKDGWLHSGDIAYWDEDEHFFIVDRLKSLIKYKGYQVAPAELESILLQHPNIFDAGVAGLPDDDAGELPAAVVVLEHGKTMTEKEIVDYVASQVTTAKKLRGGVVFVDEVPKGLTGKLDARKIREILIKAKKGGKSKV

[2] = target: FLuc-C-HiBiT (firefly luciferase) (Photinus pyralis, UniProt P08659, form not given/L550V); assay: SDR assay, FLuc-C-HiBiT; conditions: SDR max. response, clade S
Sequence of FLuc-C-HiBiT (firefly luciferase) (P08659 2-550 L550V, form open): as above

Row | SMILES | Efficacy (%) NLuc (- ATP) (NLuc) [%] | pIC50 or pSDR50 FLuc E (P. pyralis FLuc) | Efficacy (%) FLuc E (P. pyralis FLuc; Clade S follow-up) [%] | IC50 (P. pyralis FLuc) [mM] | Efficacy (%) FLuc-C-NLuc SDR (-ATP) [1] [%] | % Activity (max response, + ATP) [2] [%] | % Activity (max response, - ATP) [2] [%] | pIC50 or pSDR50 FLuc E (P. pyralis FLuc; Clade S follow-up) | IC50 (P. pyralis FLuc; Clade S follow-up) [mM]
1 | O=C(NCCC1=CCCCC1)C1CCN(C(=O)c2ncn3c2COC(c2ccccc2)C3)CC1 (stereo not shown) [NCGC00449771-01] | 0.00 | 5.56 | -97.83 | 0.00278 | 0.00 | 338.43 | 0.00 |  | 
2 | O=C(Nc1ccc(F)cc1)C1CCN(C(=O)c2ncn3c2COC(c2ccc(F)cc2)C3)CC1 (stereo not shown) [NCGC00449939-01] | 0.00 |  | -56.35 |  | 0.00 | 72.23 | 0.00 | 5.01 | 0.00988
3 | Cc1ccc(C2Cn3cnc(C(=O)N4CCC(C(=O)NCc5ccccc5)CC4)c3CO2)cc1 (stereo not shown) [NCGC00449884-01] | -9.37 |  | -51.95 |  | 0.00 | 91.57 | 0.00 | 4.96 | 0.0111
4 | O=C(NCc1ccccc1)C1CCN(C(=O)c2ncn3c2COC(c2ccccc2)C3)CC1 (stereo not shown) [NCGC00449773-01] | 0.00 | 5.56 | -92.80 | 0.00278 | 0.00 | 344.70 | 0.00 |  | 
5 | CCc1ccc(CNC(=O)C2CCN(C(=O)c3ncn4c3COC(c3ccccc3)C4)CC2)cc1 (stereo not shown) [NCGC00449775-01] | 0.00 | 5.01 | -61.62 | 0.00988 | 0.00 | 294.78 | 0.00 |  | 
6 | Cc1ccc(C2Cn3cnc(C(=O)N4CCC(C(=O)NCc5ccc(F)cc5F)CC4)c3CO2)cc1 (stereo not shown) [NCGC00449890-01] | 0.00 |  | -41.53 |  | 0.00 | 88.58 | 0.00 | 5.01 | 0.00988
7 | COc1ccc(C2Cn3cnc(C(=O)N4CCC(C(=O)NCC5CC5)CC4)c3CO2)cc1 (stereo not shown) [NCGC00449873-01] | 0.00 |  | 0.00 |  | 0.00 | 0.00 | 0.00 |  | 
8 | O=C(Nc1ccccc1)C1CCN(C(=O)c2ncn3c2COC(c2ccc(F)cc2)C3)CC1 (stereo not shown) [NCGC00449920-01] | 0.00 |  | -13.92 |  | 0.00 | 29.50 | 0.00 |  | 
9 | O=C(NCC1CCCCC1)C1CCN(C(=O)c2ncn3c2COC(c2ccc(Cl)cc2)C3)CC1 (stereo not shown) [NCGC00449855-01] | 0.00 |  | -13.13 |  | 0.00 | 16.00 | 0.00 |  | 
10 | O=C(NCc1ccc(Cl)cc1)C1CCN(C(=O)c2ncn3c2COC(c2ccccc2)C3)CC1 (stereo not shown) [NCGC00449788-01] | 0.00 | 5.41 | -95.09 | 0.00393 | 0.00 | 324.91 | 0.00 |  | 
11 | O=C(NC1CC1)C1CCN(C(=O)c2ncn3c2COC(c2ccc(Cl)cc2)C3)CC1 (stereo not shown) [NCGC00449842-01] | 0.00 |  | -28.68 |  | 0.00 | 18.50 | 0.00 |  | 
12 | O=C(NC1CCCCCCC1)C1CCN(C(=O)c2ncn3c2COC(c2ccccc2)C3)CC1 (stereo not shown) [NCGC00449770-01] | 0.00 | 5.16 | -92.12 | 0.00699 | 0.00 | 338.48 | 0.00 |  | 
13 | O=C(NC1CCCCCCC1)C1CCN(C(=O)c2ncn3c2COC(c2ccc(Cl)cc2)C3)CC1 (stereo not shown) [NCGC00449847-01] | 0.00 |  | -17.30 |  | 0.00 | 0.00 | 0.00 |  | 
14 | Cc1ccc(C2Cn3cnc(C(=O)N4CCC(C(=O)NCCC5=CCCCC5)CC4)c3CO2)cc1 (stereo not shown) [NCGC00449883-01] | 0.00 |  | -54.72 |  | 0.00 | 75.13 | 0.00 | 5.01 | 0.00988
15 | Cc1ccc(NC(=O)C2CCN(C(=O)c3ncn4c3COC(c3ccc(F)cc3)C4)CC2)c(F)c1 (stereo not shown) [NCGC00449944-01] | 0.00 |  | -69.67 |  | 0.00 | 140.99 | 7.55 | 4.96 | 0.0111
16 | Cc1ccc(C2Cn3cnc(C(=O)N4CCC(C(=O)NCc5ccccc5Cl)CC4)c3CO2)cc1 (stereo not shown) [NCGC00449891-01] | 0.00 |  | -50.12 |  | 0.00 | 113.62 | 0.00 | 4.96 | 0.0111
17 | CCCCNC(=O)C1CCN(C(=O)c2ncn3c2COC(c2ccc(F)cc2)C3)CC1 (stereo not shown) [NCGC00449812-01] | 0.00 | 4.91 | -17.96 | 0.0124 | 0.00 | 23.59 | 0.00 |  | 
18 | Cc1ccc(C2Cn3cnc(C(=O)N4CCC(C(=O)NC(C)c5ccccc5)CC4)c3CO2)cc1 (stereo not shown) [NCGC00449895-01] | -8.50 |  | -61.76 |  | 0.00 | 100.93 | 0.00 | 4.96 | 0.0111
19 | CC(C)CNC(=O)C1CCN(C(=O)c2ncn3c2COC(c2ccc(F)cc2)C3)CC1 (stereo not shown) [NCGC00449805-01] | 0.00 |  | -24.33 |  | 0.00 | 48.51 | 0.00 |  | 
20 | O=C(NC1CCCC1)C1CCN(C(=O)c2ncn3c2COC(c2ccc(Cl)cc2)C3)CC1 (stereo not shown) [NCGC00449843-01] | 0.00 |  | -13.86 |  | 0.00 | 0.00 | 0.00 |  | 
21 | O=C(NCc1cc(F)cc(F)c1)C1CCN(C(=O)c2ncn3c2COC(c2ccc(F)cc2)C3)CC1 (stereo not shown) [NCGC00449820-01] | 0.00 | 4.96 | -30.45 | 0.0111 | 0.00 | 44.22 | 0.00 |  | 
